Values joined by “and” are separate entries in the source; they are usually repeats but may differ in a detail not shown here. Equal values may be shown once. Read-outs that look alike come from different tables or passages of the source.
Assays:
Type in all cases: biochemical
DPP9 [1] = biological target: T1, DPP9 (Homo sapiens, UniProt Q86TI2); experiment: biochemical; parameters: purchased Proteros Biostructures GmbH, Germany; details: for DPP9 activity [%]: replicates
Method: (§1) Enzyme activity of DPP4, DPP8, DPP9 (Proteros Biostructures GmbH, Germany) and PREP (Sigma Aldrich, USA) was determined by measuring the initial velocity of AMC release from the fluorogenic substrate GP-AMC (Sigma Aldrich, USA) using a Tecan Spark® 10 M multimode microplate reader (Tecan Group Ltd., Switzerland) in activity buffer (20 mM HEPES/KOH pH 7.3, 110 mM potassium acetate, 2 mM Mg acetate, 0.5 mM EGTA, 0.02% Tween 20, supplemented with 1 mM DTT) and a final volume of 20 μL for maximal 60 min at 30 °C. Prior to activity measurement, 10 nM enzyme was incubated for 45 min at 30 °C and gentle shaking with the inhibitor compounds in concentrations ranging from 0 to 100 μM. The compounds were dissolved in DMSO and diluted in activity buffer (final DMSO concentration: 1%). […] IC50 values were calculated using Graph-Pad Prism v10.2.3 using the equation: [Inhibitor] vs. response—Variable slope (four parameters). All measurements were performed in triplicates and error bars represent standard errors of the fit.

DPP8 [2] = biological target: T2, DPP8 (Homo sapiens, UniProt Q6V1X1); experiment: Time-dependent DPP8 inhibition kinetics (kobs, KI, kinact, kapp); details: for kobs: n=3
T2 construct: purchased Proteros Biostructures GmbH, Germany
T2 sequence (Q6V1X1 whole entry): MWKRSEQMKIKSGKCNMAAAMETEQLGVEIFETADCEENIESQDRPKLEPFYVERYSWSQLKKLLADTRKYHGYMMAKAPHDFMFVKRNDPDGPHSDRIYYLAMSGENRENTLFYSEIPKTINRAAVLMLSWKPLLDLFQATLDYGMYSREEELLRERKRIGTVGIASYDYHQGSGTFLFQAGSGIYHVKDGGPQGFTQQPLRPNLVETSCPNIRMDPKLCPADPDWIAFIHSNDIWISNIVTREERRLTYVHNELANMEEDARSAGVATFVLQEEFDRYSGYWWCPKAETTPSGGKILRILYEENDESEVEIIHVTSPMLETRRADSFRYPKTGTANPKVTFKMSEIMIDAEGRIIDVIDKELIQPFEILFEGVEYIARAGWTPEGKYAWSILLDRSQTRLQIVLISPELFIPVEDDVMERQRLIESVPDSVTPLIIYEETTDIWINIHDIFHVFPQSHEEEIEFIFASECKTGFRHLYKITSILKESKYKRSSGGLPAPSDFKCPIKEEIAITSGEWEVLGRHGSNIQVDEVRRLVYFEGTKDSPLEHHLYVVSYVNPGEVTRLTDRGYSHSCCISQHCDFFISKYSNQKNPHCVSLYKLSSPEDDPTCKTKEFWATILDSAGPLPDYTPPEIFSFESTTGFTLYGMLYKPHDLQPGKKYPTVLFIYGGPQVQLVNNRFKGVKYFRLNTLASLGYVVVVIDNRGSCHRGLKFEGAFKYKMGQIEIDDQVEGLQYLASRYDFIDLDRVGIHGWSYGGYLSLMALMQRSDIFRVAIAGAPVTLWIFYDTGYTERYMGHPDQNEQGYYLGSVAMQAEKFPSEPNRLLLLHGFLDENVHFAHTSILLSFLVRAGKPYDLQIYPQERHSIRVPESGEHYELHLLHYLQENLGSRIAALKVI
Method: (§2) To calculate the reaction rate of covalent bond formation between DPP proteins and inhibitor, kinact, KI and kapp was determined as previously described[30],[51]. Therefore, 250 µM GP-AMC was added simultaneously with a serial dilution of the inhibitor to 10 nM enzyme. Enzyme activity was measured for a maximum of 120 min at 30 °C, and fluorescence intensities were then plotted against time. Data was fitted to the following equation: Y=(vi/kobs)*(1−exp(−kobs*X)) using Graph-Pad Prism v10.2.3. The obtained pseudo-first-order rate constant was used to determine the maximum enzyme inhibition rate (kinact) and binding affinity (KI) by fitting the plot of kobs against inhibitor concentration to the following equation: Y=kinact/1+(KI/[I]) . The efficiency of covalent bond formation (kapp) was calculated by the ratio of kinact/KI. All measurements were performed in triplicates and error bars represent standard errors of the fit.

DPP4 [3] = biological target: T3, DPP4 (Homo sapiens, UniProt P27487); details: for kobs: n=3
T3 construct: purchased Proteros Biostructures GmbH, Germany
T3 sequence (P27487 whole entry): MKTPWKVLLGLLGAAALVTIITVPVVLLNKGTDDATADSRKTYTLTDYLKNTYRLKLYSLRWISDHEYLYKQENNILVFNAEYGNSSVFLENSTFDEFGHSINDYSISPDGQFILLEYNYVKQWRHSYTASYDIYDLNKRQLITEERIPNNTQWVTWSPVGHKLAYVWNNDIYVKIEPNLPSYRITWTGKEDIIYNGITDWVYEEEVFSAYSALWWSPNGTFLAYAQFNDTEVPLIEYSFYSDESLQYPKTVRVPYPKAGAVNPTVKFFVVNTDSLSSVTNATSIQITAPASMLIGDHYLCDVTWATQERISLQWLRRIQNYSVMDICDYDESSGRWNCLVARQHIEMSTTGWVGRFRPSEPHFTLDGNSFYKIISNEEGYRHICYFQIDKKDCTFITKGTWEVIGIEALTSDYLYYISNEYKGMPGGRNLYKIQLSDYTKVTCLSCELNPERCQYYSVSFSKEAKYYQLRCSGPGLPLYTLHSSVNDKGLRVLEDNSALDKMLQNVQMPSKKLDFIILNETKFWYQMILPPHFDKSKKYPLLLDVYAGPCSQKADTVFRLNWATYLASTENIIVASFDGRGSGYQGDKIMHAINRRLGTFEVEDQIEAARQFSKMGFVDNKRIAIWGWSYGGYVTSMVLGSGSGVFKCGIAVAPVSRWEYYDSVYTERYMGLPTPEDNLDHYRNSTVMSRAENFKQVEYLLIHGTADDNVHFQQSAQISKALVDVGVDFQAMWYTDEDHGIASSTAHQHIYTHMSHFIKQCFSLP
Method: as §2, with “Therefore, 250 µM GP-AMC was added simultaneously with a serial dilution of the inhibitor to 10 nM enzyme.” left out

DPP9 [4] = biological target: T1, DPP9; experiment: Time-dependent DPP9 inhibition kinetics (kobs, KI, kinact, kapp); parameters: purchased Proteros Biostructures GmbH, Germany; details: for kobs: n=3
Method: as §2

DPP4 [5] = biological target: T3, DPP4; experiment: biochemical; details: for DPP4 activity [%]: replicates
Method: as §1

DPP8 [6] = biological target: T2, DPP8; experiment: biochemical; details: for DPP8 activity [%]: replicates
Method: as §1

[7] = irreversible inhibition, fit of kobs vs inhibitor concentration

T1 sequence (Q86TI2 whole entry): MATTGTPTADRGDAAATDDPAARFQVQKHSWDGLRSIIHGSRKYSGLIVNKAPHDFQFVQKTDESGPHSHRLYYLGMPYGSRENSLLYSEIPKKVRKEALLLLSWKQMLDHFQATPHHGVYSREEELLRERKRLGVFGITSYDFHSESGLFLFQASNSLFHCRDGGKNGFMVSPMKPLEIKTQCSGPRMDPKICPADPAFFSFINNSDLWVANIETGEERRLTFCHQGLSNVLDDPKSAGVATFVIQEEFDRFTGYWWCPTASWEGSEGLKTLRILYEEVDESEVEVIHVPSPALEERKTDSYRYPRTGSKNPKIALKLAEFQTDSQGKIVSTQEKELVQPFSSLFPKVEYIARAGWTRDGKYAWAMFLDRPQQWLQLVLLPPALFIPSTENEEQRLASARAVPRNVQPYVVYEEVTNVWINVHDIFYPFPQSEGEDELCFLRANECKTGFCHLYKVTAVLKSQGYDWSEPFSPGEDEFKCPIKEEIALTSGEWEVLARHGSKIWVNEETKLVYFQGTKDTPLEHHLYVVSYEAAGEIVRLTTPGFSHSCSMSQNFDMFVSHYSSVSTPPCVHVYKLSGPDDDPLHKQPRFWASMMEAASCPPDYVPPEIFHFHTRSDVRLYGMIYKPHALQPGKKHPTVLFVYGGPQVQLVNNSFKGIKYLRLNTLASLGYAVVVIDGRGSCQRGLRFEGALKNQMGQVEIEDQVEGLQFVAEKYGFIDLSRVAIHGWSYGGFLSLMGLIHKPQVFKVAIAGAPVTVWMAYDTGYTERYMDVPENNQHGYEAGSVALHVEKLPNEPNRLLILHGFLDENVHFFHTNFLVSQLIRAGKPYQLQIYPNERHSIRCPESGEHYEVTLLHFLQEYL

C#CCCCP(=O)(OCC)N1CCCC(N)C1=O.O=C(O)C(F)(F)F (mixture of isomers) [Compound 9]
IC50 (DPP9 [1]; GP-AMC 250 µM, 10 nM enzyme, 45 min pre-incubation at 30 °C, read-out: IC50 DPP9): 1.57 ± 0.092 µM | DPP9 activity [%] (DPP9 [1]; c 156.25 nM): 96.2584% and 100.319% and 101.85% | DPP9 activity [%] (DPP9 [1]; c 312.5 nM): 100.858% and 91.3501% and 92.0123% | DPP9 activity [%] (DPP9 [1]; c 625 nM): 84.7331% and 76.9427% and 84.4618% | DPP9 activity [%] (DPP9 [1]; c 1562.5 nM): 49.8961% and 58.6041% and 49.6299% | DPP9 activity [%] (DPP9 [1]; c 2500 nM): 31.5472% and 27.5156% and 32.2809% | DPP9 activity [%] (DPP9 [1]; c 3125 nM): 24.6772% and 31.33% and 43.1829% | DPP9 activity [%] (DPP9 [1]; c 5000 nM): 13.8796% and 12.6206% and 14.7121% | DPP9 activity [%] (DPP9 [1]; c 6250 nM): 10.217% and 12.6398% and 8.944% | DPP9 activity [%] (DPP9 [1]; c 10000 nM): 3.977% and 3.748% and 3.468% | DPP9 activity [%] (DPP9 [1]; c 25000 nM): 1.6052% and 1.507% and 1.185% | DPP9 activity [%] (DPP9 [1]; c 50000 nM): 0.4873% and 0.1919% and 0.2191% | DPP9 activity [%] (DPP9 [1]; c 100000 nM): -0.1705% and -0.1127% and 0.03998% | kapp (DPP8 [2]; DPP8): 170.93 M⁻¹ s⁻¹ | kinact best fit (DPP8 [2]; DPP8): 0.0005333 s⁻¹ | kobs (DPP8 [2]; DPP8, c 312.5 nM): 5.77e-05 s⁻¹ | kobs (DPP8 [2]; DPP8, c 625 nM): 8.71e-05 s⁻¹ | kobs (DPP8 [2]; DPP8, c 2500 nM): 0.000239 s⁻¹ | KI (inactivation) (DPP8 [2]; DPP8, fit of kobs vs inhibitor concentration, read-out: KI best fit): 3.12 µM | KI (inactivation) (DPP8 [2]; DPP8, read-out: KI best fit): 3.12 µM | kinact DPP8 (DPP8 [2]; [7]): 0.00053 ± 0.00004 s⁻¹ | KI (inactivation) (DPP8 [2]; irreversible inhibition, fit of kobs vs inhibitor concentration, read-out: KI DPP8): 3.12 µM | kapp DPP8 (DPP8 [2]; ratio kinact/KI): 171 M⁻¹ s⁻¹ | kapp (DPP4 [3]; DPP4): 481.66 M⁻¹ s⁻¹ | kinact best fit (DPP4 [3]; DPP4): 0.005372 s⁻¹ | kobs (DPP4 [3]; DPP4, c 6250 nM): 0.002232 s⁻¹ | kobs (DPP4 [3]; DPP4, c 25000 nM): 0.003486 s⁻¹ | kobs (DPP4 [3]; DPP4, c 50000 nM): 0.004579 s⁻¹ | KI (inactivation) (DPP4 [3]; DPP4, fit of kobs vs inhibitor concentration, read-out: KI best fit): 11.2 µM | KI (inactivation) (DPP4 [3]; DPP4, read-out: KI best fit): 11.2 µM | kinact DPP4 (DPP4 [3]; [7]): 0.00537 ± 0.00033 s⁻¹ | KI (inactivation) (DPP4 [3]; irreversible inhibition, fit of kobs vs inhibitor concentration, read-out: KI DPP4): 11.2 µM | kapp DPP4 (DPP4 [3]; ratio kinact/KI): 482 M⁻¹ s⁻¹ | kapp (DPP9 [4]; DPP9): 68.49 M⁻¹ s⁻¹ | kinact best fit (DPP9 [4]; DPP9): 0.0003473 s⁻¹ | kobs (DPP9 [4]; DPP9, c 312.5 nM): 2.92e-05 s⁻¹ | kobs (DPP9 [4]; DPP9, c 625 nM): 4.78e-05 s⁻¹ | kobs (DPP9 [4]; DPP9, c 2500 nM): 0.000103 s⁻¹ | KI (inactivation) (DPP9 [4]; DPP9, fit of kobs vs inhibitor concentration, read-out: KI best fit): 5.07 µM | KI (inactivation) (DPP9 [4]; DPP9, read-out: KI best fit): 5.07 µM | kinact DPP9 (DPP9 [4]; [7]): 0.00035 ± 0.00007 s⁻¹ | KI (inactivation) (DPP9 [4]; irreversible inhibition, fit of kobs vs inhibitor concentration, read-out: KI DPP9): 5.07 µM | kapp DPP9 (DPP9 [4]; ratio kinact/KI): 68 M⁻¹ s⁻¹ | IC50 (DPP4 [5]; GP-AMC 250 µM, 10 nM enzyme, 45 min pre-incubation at 30 °C, read-out: IC50 DPP4): 2.99 ± 0.97 µM | DPP4 activity [%] (DPP4 [5]; c 1562.5 nM): 65.3186% and 69.0903% and 69.4857% | DPP4 activity [%] (DPP4 [5]; c 3125 nM): 56.1551% and 36.739% | DPP4 activity [%] (DPP4 [5]; c 6250 nM): 16.7655% and 22.4037% and 25.1515% | DPP4 activity [%] (DPP4 [5]; c 25000 nM): 0.4601% and 0.7453% and 0.687% | DPP4 activity [%] (DPP4 [5]; c 50000 nM): 0.1815% and 0.2139% and 0.1037% | DPP4 activity [%] (DPP4 [5]; c 100000 nM): 0.1102% and 0.02592% and 0.006479% | potency relative to C8-alkyne compound 10 (DPP8 [6]; DPP8/9 IC50, fold more potent): about 20 fold | IC50 (DPP8 [6]; GP-AMC 250 µM, 10 nM enzyme, 45 min pre-incubation at 30 °C, read-out: IC50 DPP8): 0.668 ± 0.043 µM | DPP8 activity [%] (DPP8 [6]; c 15.625 nM): 88.0116% and 95.2585% and 92.8653% | DPP8 activity [%] (DPP8 [6]; c 31.25 nM): 98.7519% and 93.0125% and 99.7656% | DPP8 activity [%] (DPP8 [6]; c 62.5 nM): 100.514% and 96.8883% and 98.9251% | DPP8 activity [%] (DPP8 [6]; c 250 nM): 89.8086% and 92.0804% and 74.9743% | DPP8 activity [%] (DPP8 [6]; c 312.5 nM): 76.3712% and 75.8504% and 60.7309% | DPP8 activity [%] (DPP8 [6]; c 500 nM): 58.2452% and 66.831% and 55.6678% | DPP8 activity [%] (DPP8 [6]; c 625 nM): 43.0971% and 49.0696% and 43.2225% | DPP8 activity [%] (DPP8 [6]; c 1000 nM): 45.7318% and 41.4388% and 38.9079% | DPP8 activity [%] (DPP8 [6]; c 1562.5 nM): 30.9827% and 31.9714% and 36.8996% | DPP8 activity [%] (DPP8 [6]; c 2500 nM): 6.46% and 6.6893% and 8.361% | DPP8 activity [%] (DPP8 [6]; c 3125 nM): 13.5787% and 24.1011% and 12.0301% | DPP8 activity [%] (DPP8 [6]; c 5000 nM): 1.65% and 1.018% and 2.196% | DPP8 activity [%] (DPP8 [6]; c 6250 nM): 4.899% and 5.3654% and 4.34% | DPP8 activity [%] (DPP8 [6]; c 10000 nM): 0.2086% and 0.07371% and -0.1898% | DPP8 activity [%] (DPP8 [6]; c 25000 nM): 1.765% and 1.4465% and 2.043% | DPP8 activity [%] (DPP8 [6]; c 50000 nM): 2.554% and 1.757% and 1.4548% | DPP8 activity [%] (DPP8 [6]; c 100000 nM): 1.577% and 1.418% and 1.083% | potency relative to alkyl compound 5 (DPP8 [6]; fold more potent inhibitor): about 20 fold

— PMC11968843, “Sulphostin-inspired N-phosphonopiperidones as selective covalent DPP8 and DPP9 inhibitors” (Nature Communications, 2025)
